From patent US20240246964A1 (Arbutus Biopharma Corporation, priority 2021, published 2024)
pEC50, pIC50: −log10 of the molar value.

Key:
[1] = target: PD-L1 His protein / PD-1 Fc protein (Homo sapiens (Human), UniProt Q9NZQ7); experiment: HTRF Assay (PD-1/PD-L1 interaction); format: binding; conditions: PD-L1 His 6 nM, PD-1 Fc 6 nM
human PD-L1 = human PD-L1 (Homo sapiens (Human), UniProt Q9NZQ7); experiment: T cell activation luciferase reporter cell culture system (T Cell Activation Assay); format: cell-based; conditions: luciferase reporter assay; PD-L1 aAPC/CHO-K1 cells with PD-1 effector Jurkat T cells
Chain of human PD-L1 (Q9NZQ7 19-290): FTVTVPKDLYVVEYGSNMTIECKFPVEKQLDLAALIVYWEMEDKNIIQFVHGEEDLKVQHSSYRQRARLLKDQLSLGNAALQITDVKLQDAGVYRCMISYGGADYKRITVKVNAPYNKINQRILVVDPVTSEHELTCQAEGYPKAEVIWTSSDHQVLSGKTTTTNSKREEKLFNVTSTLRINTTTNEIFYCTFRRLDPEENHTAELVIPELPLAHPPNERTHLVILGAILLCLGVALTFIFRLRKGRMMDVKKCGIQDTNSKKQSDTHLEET

Chain of PD-L1 His protein / PD-1 Fc protein (Q9NZQ7 19-238): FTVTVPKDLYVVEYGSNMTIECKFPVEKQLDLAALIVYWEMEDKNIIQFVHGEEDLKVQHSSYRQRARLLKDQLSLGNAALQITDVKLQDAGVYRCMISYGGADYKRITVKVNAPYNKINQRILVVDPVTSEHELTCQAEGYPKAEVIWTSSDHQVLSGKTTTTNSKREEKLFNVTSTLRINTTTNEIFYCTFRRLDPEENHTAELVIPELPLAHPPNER

SMILES	pIC50 [1]	pEC50 (human PD-L1)
CNCc1ccc(-c2cccc(-c3ccnc(-c4cc(F)c(CNC)c(OC)c4)c3Cl)c2Cl)nc1OC [Example 286, 1-(6-(2-Chloro-3-(3-chloro-2-(3-fluoro-5-methoxy-4-((methylamino)methyl)phenyl)pyridin-4-yl)phenyl)-2-methoxypyridin-3-yl)-N-methylmethanamine]	8.29	7.81
COc1cc(-c2nccc(-c3cccc(-c4ccc(CN5CC6(C5)CN(C(C)=O)C6)c(OC)n4)c3Cl)c2Cl)ccc1CN1CC2(CNC(=O)C2)C1 [Example 519, 2-(4-(4-(3-(5-((6-Acetyl-2,6-diazaspiro[3.3]heptan-2-yl)methyl)-6-methoxypyridin-2-yl)-2-chlorophenyl)-3-chloropyridin-2-yl)-2-methoxybenzyl)-2,6-diazaspiro[3.4]octan-7-one]	8.73	7.89
COC(=O)CNCc1ccc(-c2cccc(-c3ccnc(-c4cc5c(c(OC)c4)CN(C[C@H](C)O)CC5)c3Cl)c2Cl)nc1OC [Compound 218, methyl (S)-((6-(2-chloro-3-(3-chloro-2-(2-(2-hydroxypropyl)-8-methoxy-1,2,3,4-tetrahydroisoquinolin-6-yl)pyridin-4-yl)phenyl)-2-methoxypyridin-3-yl)methyl)glycinate]	8.15	6.22
CNCc1cc(OC)cc(-c2nccc(-c3cccc(-c4ccc(CNC)c(OC)n4)c3Cl)c2Cl)c1 [Compound 155, 1-(6-(2-chloro-3-(3-chloro-2-(3-methoxy-5-((methylamino)methyl)phenyl)pyridin-4-yl)phenyl)-2-methoxypyridin-3-yl)-N-methylmethanamine]	8.17	≤ 5.00
CNCc1ccc(-c2cccc(-c3ccnc(-c4ccc(CN5CC6(CNC(=O)C6)C5)c(OC)c4)c3Cl)c2Cl)nc1OC [Compound 213, 2-(4-(3-chloro-4-(2-chloro-3-(6-methoxy-5-((methylamino)methyl)pyridin-2-yl)phenyl)pyridin-2-yl)-2-methoxybenzyl)-2,6-diazaspiro[3.4]octan-7-one]	8.56	7.63
COc1cc(-c2nccc(-c3cccc(-c4ccc5c(CNC6CCC(F)(F)CC6)cn(C)c5n4)c3Cl)c2Cl)ccc1CNC[C@@H]1CCC(=O)N1 [Compound 96, (S)-5-(((4-(3-chloro-4-(2-chloro-3-(3-(((4,4-difluorocyclohexyl)amino)methyl)-1-methyl-1H-pyrrolo[2,3-b]pyridin-6-yl)phenyl)pyridin-2-yl)-2-methoxybenzyl)amino)methyl)pyrrolidin-2-one]	9.22	6.64
COc1cc(-c2nccc(-c3cccc(-c4ccc(CNC[C@@H]5CCC(=O)N5)c(OC)n4)c3Cl)c2C)ccc1CNC[C@@H]1CCC(=O)N1 [Example 414, (S)-5-((((6-(2-Chloro-3-(2-(3-methoxy-4-(((((S)-5-oxopyrrolidin-2-yl)methyl)amino)methyl)phenyl)-3-methylpyridin-4-yl)phenyl)-2-methoxypyridin-3-yl)methyl)amino)methyl)pyrrolidin-2-one]	8.80	7.53
COc1cc(-c2nccc(-c3cccc(NC(=O)c4ccc(CNCCO)cn4)c3C)c2Cl)cc(F)c1CNCCO [Example 762, N-(3-(3-chloro-2-(3-fluoro-4-(((2-hydroxyethyl)amino)methyl)-5-methoxyphenyl)pyridin-4-yl)-2-methylphenyl)-5-(((2-hydroxyethyl)amino)methyl)picolinamide]	9.12	7.30
COc1nc(-c2cccc(-c3ccnc(-c4cc(OC)c5nc(CN6CC(C)(C#N)C6)cn5c4)c3Cl)c2Cl)ccc1CNC1CCN(C(C)=O)CC1 [Example 477, 1-((6-(4-(3-(5-(((1-Acetylpiperidin-4-yl)amino)methyl)-6-methoxypyridin-2-yl)-2-chlorophenyl)-3-chloropyridin-2-yl)-8-methoxyimidazo[1,2-a]pyridin-2-yl)methyl)-3-methylazetidine-3-carbonitrile]	7.67	5.13
COc1nc(-c2cccc(-c3ccnc(-c4cnc5cc(CNC[C@@H]6CCC(=O)N6)ccc5c4)c3Cl)c2Cl)ccc1CNC[C@@H]1CCC(=O)N1 [Compound 52, (S)-5-((((6-(2-chloro-3-(3-chloro-2-(7-(((((S)-5-oxopyrrolidin-2-yl)methyl)amino)methyl)quinolin-3-yl)pyridin-4-yl)phenyl)-2-methoxypyridin-3-yl)methyl)amino)methyl)pyrrolidin-2-one]	9.70	6.90
COc1cc(-c2nccc(-c3cccc(-c4ccc(CN5CC6(C5)CN(C(C)=O)C6)c(OC)n4)c3Cl)c2Cl)cnc1CN1CC2(C1)CN(C(C)=O)C2 [Compound 428, 1-(6-((6-(3-(6′-((6-Acetyl-2,6-diazaspiro[3.3]heptan-2-yl)methyl)-3-chloro-5′-methoxy-[2,3′-bipyridin]-4-yl)-2-chlorophenyl)-2-methoxypyridin-3-yl)methyl)-2,6-diazaspiro[3.3]heptan-2-yl)ethan-1-one]	9.11	7.29
COc1nc(-c2cccc(-c3ccnc(-c4cc(OC)c5nc(CNC6CC7(COC7)C6)cn5c4)c3Cl)c2Cl)ccc1CNC[C@@H]1CCC(=O)N1 [Example 321, (S)-5-((((6-(3-(2-(2-(((2-Oxaspiro[3.3]heptan-6-yl)amino)methyl)-8-methoxyimidazo[1,2-a]pyridin-6-yl)-3-chloropyridin-4-yl)-2-chlorophenyl)-2-methoxypyridin-3-yl)methyl)amino)methyl)pyrrolidin-2-one]	9.07	7.19
COc1cc(-c2nccc(-c3cccc(-c4ccc(CNC[C@@H]5CCC(=O)N5)c(OC)n4)c3Cl)c2Cl)cc(F)c1CNCCCF [Compound 147, (S)-5-((((6-(2-chloro-3-(3-chloro-2-(3-fluoro-4-(((3-fluoropropyl)amino)methyl)-5-methoxyphenyl)pyridin-4-yl)phenyl)-2-methoxypyridin-3-yl)methyl)amino)methyl)pyrrolidin-2-one]	8.71	7.37
CNCc1ccc(-c2cccc(-c3ccnc(-c4cc(CN5CC6(CC(C(=O)O)C6)C5)cc(OC)c4)c3Cl)c2Cl)nc1OC [Compound 173, 2-(3-(3-chloro-4-(2-chloro-3-(6-methoxy-5-((methylamino)methyl)pyridine-2-yl)phenyl)pyridine-2-yl)-5-methoxybenzyl)-2-azaspiro[3.3]heptane-6-carboxylic acid]	7.49	≤ 5.00
COc1cc(-c2nccc(-c3cccc(-c4ccc(CNC5CCN(C(C)=O)CC5)c(OC)n4)c3Cl)c2F)ccc1CNC1CCN(C(C)=O)CC1 [Example 337, 1-(4-(((6-(3-(2-(4-(((1-Acetylpiperidin-4-yl)amino)methyl)-3-methoxyphenyl)-3-fluoropyridin-4-yl)-2-chlorophenyl)-2-methoxypyridin-3-yl)methyl)amino)piperidin-1-yl)ethan-1-one]	9.52	7.21
COC(=O)C1CN(Cc2nn3cc(-c4nccc(-c5cccc(-c6ccc(CNC[C@@H]7CCC(=O)N7)c(OC)n6)c5Cl)c4Cl)cc3c(=O)n2C)C1 [Compound 182, methyl (S)-1-((6-(3-chloro-4-(2-chloro-3-(6-methoxy-5-((((5-oxopyrrolidin-2-yl)methyl)amino)methyl)pyridine-2-yl)phenyl)pyridine-2-yl)-3-methyl-4-oxo-3,4-dihydropyrrolo[2,1-f][1,2,4]pyridine-2-yl)methyl)azetidine-3-carboxylate]	8.61	7.41
COc1cc(-c2nccc(-c3cccc(-c4ccc(CNC[C@@H]5CCC(=O)N5)c(OC)n4)c3Cl)c2Cl)cnc1CN[C@H]1CCOC1=O [Compound 268, (S)-5-((((6-(2-Chloro-3-(3-chloro-5′-methoxy-6′-((((S)-2-oxotetrahydrofuran-3-yl)amino)methyl)-[2,3′-bipyridin]-4-yl)phenyl)-2-methoxypyridin-3-yl)methyl)-amino)methyl)pyrrolidin-2-one]	8.84	6.17
COc1cc(-c2nccc(-c3cccc(-c4ccc(CN5CCC(NC(C)=O)CC5)c(OC)n4)c3Cl)c2Cl)ccc1CN1CCC(NC(C)=O)CC1 [Example 322, N-(1-((6-(3-(2-(4-((4-Acetamidopiperidin-1-yl)methyl)-3-methoxyphenyl)-3-chloropyridin-4-yl)-2-chlorophenyl)-2-methoxypyridin-3-yl)methyl)piperidin-4-yl)acetamide]	7.64	7.14
COc1cc(-c2nccc(-c3cccc(-c4ccc(CNC5CCOCC5)c(OC)n4)c3C)c2Cl)ccc1CNC1CCOCC1 [Example 426, N-((6-(3-(3-chloro-2-(3-methoxy-4-(((tetrahydro-2H-pyran-4-yl)amino)methyl)phenyl)pyridin-4-yl)-2-methylphenyl)-2-methoxypyridin-3-yl)methyl)tetrahydro-2H-pyran-4-amine]	8.37	7.01
COc1cc(-c2nccc(-c3cccc(-c4ccc(CNC5CCOCC5)c(OC)n4)c3Cl)c2Cl)ccc1CNC1CCOCC1 [Example 298, N-((6-(2-chloro-3-(3-chloro-2-(3-methoxy-4-(((tetrahydro-2H-pyran-4-yl)amino)methyl)phenyl)pyridin-4-yl)phenyl)-2-methoxypyridin-3-yl)methyl)tetrahydro-2H-pyran-4-amine]	8.75	7.84
COC(=O)C[C@@H](CO)NCc1ccc(-c2nccc(-c3cccc(-c4ccc(CNC5CCN(C(C)=O)CC5)c(OC)n4)c3Cl)c2Cl)cc1OC [Example 339, Methyl (S)-3-((4-(4-(3-(5-(((1-acetylpiperidin-4-yl)amino)methyl)-6-methoxypyridin-2-yl)-2-chlorophenyl)-3-chloropyridin-2-yl)-2-methoxybenzyl)amino)-4-hydroxybutanoate]	9.92	7.01
